Experimental data as given in US8952018B2, “Pharmaceutical combination of MEK inhibitor and B-Raf inhibitors” (GlaxoSmithKline LLC, priority 2009, dated 2015).
Where two headings read alike, the source gives them in different places. Blank lines part the entries; values can stand above or below the molecule they belong to.

How the values were obtained:
SW480 = experiment: Cell growth inhibition assay (Cell Titer Glo) and combination data analysis; assay type: cell-based; settings: Homo sapiens, 72 h, Colon, KRAS_G12C, 3 days
NCI-H508 = experiment: as above; assay type: cell-based; settings: Homo sapiens, 72 h, Colon, BRAF_G596R, 3 days
[1] = system: four colon cell lines with BRAF V600E mutation; experiment: Cell growth inhibition assay, summary of Table 3; assay type: cell-based; settings: Homo sapiens, read-out: IC50 values, single agent
Experimental: (§1) A375 PF11 was derived from A375.
(§2) Cell growth inhibition assay and combination data analysis—All cells were cultured for a minimum of 72 hours prior to cell plating. […] Cells were incubated in the presence of compounds for 3 days. ATP levels were determined by adding Cell Titer Glo® (Promega) according to the manufacturer's protocol. Briefly, Cell Titer Glo® was added each plate, incubated for 30 minutes then luminescent signal was read on the SpectraMax L plate reader with a 0.5 sec integration time.
(§3) Inhibition of cell growth was estimated after treatment with compound or combination of compounds for three days and comparing the signal to cells treated with vehicle (DMSO). Cell growth was calculated relative to vehicle (DMSO) treated control wells.
(§4) In general, a CI value <0.9, between 0.9 and 1.1, or >1.1 indicates synergy, additivity and antagonism, respectively. In general, the smaller the Cl number, the greater is the strength of synergy.
(§5) EOHSA values are defined as increases in improvement (here, in ‘percentage points’ (ppts) difference) produced by the combination over the best single agent at its component dose level for the combination. For single agent and combination treatments, cells were exposed to compounds at a fixed-dose-ratio, and dose response curves were fit to the experimental data and analyzed using regression models. At specified total dose levels of IC50 along the dose response curve, the dose combination (corresponding to IC50) was determined for making EOHSA statistical inferences.

[2] = system: seven colon lines without BRAF V600E mutation (either with BRAF G596R or KRAS mutations); experiment: Cell growth inhibition assay, summary of Table 3; assay type: cell-based; settings: Homo sapiens
Experimental: as §1, §2, §3, §4, §5

SW837 = experiment: Cell growth inhibition assay (Cell Titer Glo) and combination data analysis; assay type: cell-based; settings: Homo sapiens, 72 h, Colon, KRAS_G12C, 3 days
HCT-8 = experiment: as above; assay type: cell-based; settings: Homo sapiens, 72 h, Colon, KRAS_G13D, 3 days
SW1417 = experiment: as above; assay type: cell-based; settings: Homo sapiens, 72 h, Colon, BRAF_V600E, 3 days, mean ± std
Source text: (§6) EOHSA values are defined as increases in improvement (here, in ‘percentage points’ (ppts) difference) produced by the combination over the best single agent at its component dose level for the combination. For single agent and combination treatments, cells were exposed to compounds at a fixed-dose-ratio, and dose response curves were fit to the experimental data and analyzed using regression models. […]

SW1463 = experiment: as above; assay type: cell-based; settings: Homo sapiens, 72 h, Colon, KRAS_G12C, 3 days
Experimental: (§7) Cell growth inhibition assay and combination data analysis—All cells were cultured for a minimum of 72 hours prior to cell plating. Cells were assayed in a 96-well tissue culture plate (NUNC 136102) of RPMI medium containing 10% FBS for all cells at 1,000 cells per well. Approximately 24 hours after plating, cells were exposed to ten, three-fold serial dilutions of compound or the combination of the two agents at a constant molar to molar ratio of 1:10 Compound A (DMSO solvate) to Compound B (free form) in RPMI media containing 10% FBS. Concentrations tested for Compound A were 1 μM-0.05 nM and for Compound B were 10 μM-0.5 nM. Cells were incubated in the presence of compounds for 3 days. ATP levels were determined by adding Cell Titer Glo® (Promega) according to the manufacturer's protocol. Briefly, Cell Titer Glo® was added each plate, incubated for 30 minutes then luminescent signal was read on the SpectraMax L plate reader with a 0.5 sec integration time.

12R8-3 = experiment: as above; assay type: cell-based; settings: Homo sapiens, A375P-F11, 72 h, Melanoma, resistant clone of A375 PF11, BRAF_V600E, 3 days
Experimental: as §7

[3] = system: melanoma lines 12R8-3, 12R8-1, 12R5-3, and 16R6-3; experiment: Cell growth inhibition assay, summary of Table 3; assay type: cell-based; settings: Homo sapiens; range over 12R8-3, 12R8-1, 12R5-3, 16R6-3; read-out: IC50, single agent
RKO = experiment: Cell growth inhibition assay (Cell Titer Glo) and combination data analysis; assay type: cell-based; settings: Homo sapiens, 72 h, Colon, BRAF_V600E, 3 days, mean ± std
Source text: as §6

A375PF11 = experiment: as above; assay type: cell-based; settings: Homo sapiens, A375P-F11, 72 h, Melanoma, BRAF_V600E, 3 days, mean ± std
Experimental: as §7

HT-29 = experiment: as above; assay type: cell-based; settings: Homo sapiens, 72 h, Colon, BRAF_V600E, 3 days, mean ± std
Source text: as §6

Colo-205 = experiment: as above; assay type: cell-based; settings: Homo sapiens, 72 h, Colon, BRAF_V600E, 3 days, mean ± std
Source text: as §6

DLD1 = experiment: as above; assay type: cell-based; settings: Homo sapiens, DLD-1, 72 h, Colon, KRAS_G13D, 3 days
Source text: as §6

12R5-1 = experiment: as above; assay type: cell-based; settings: Homo sapiens, A375P-F11, 72 h, Melanoma, resistant clone of A375 PF11, BRAF_V600E, 3 days
Experimental: (§8) Cell growth inhibition assay and combination data analysis—All cells were cultured for a minimum of 72 hours prior to cell plating. Cells were assayed in a 96-well tissue culture plate (NUNC 136102) of RPMI medium containing 10% FBS for all cells at 1,000 cells per well. Approximately 24 hours after plating, cells were exposed to ten, three-fold serial dilutions of compound or the combination of the two agents at a constant molar to molar ratio of 1:10 Compound A (DMSO solvate) to Compound B (free form) in RPMI media containing 10% FBS. Concentrations tested for Compound A were 1 μM-0.05 nM and for Compound B were 10 μM-0.5 nM. […] ATP levels were determined by adding Cell Titer Glo® (Promega) according to the manufacturer's protocol. Briefly, Cell Titer Glo® was added each plate, incubated for 30 minutes then luminescent signal was read on the SpectraMax L plate reader with a 0.5 sec integration time.

[4] = system: melanoma lines 16R5-2, 16R6-4 and 12R5-1; experiment: Cell growth inhibition assay, summary of Table 3; assay type: cell-based, human; settings: 16R5-2, 16R6-4, 12R5-1; compound alone
Experimental: Cell lines and growth conditions—Human colon tumor lines, Colo-205, DLD-1, HCT-8, HT-29, LS-1034, NCI-H508, RKO, SW1417, SW1463, SW480 and SW837, and human melanoma line A375 were from ATCC. A375 PF11 was derived from A375.
Cell growth inhibition assay and combination data analysis—All cells were cultured for a minimum of 72 hours prior to cell plating. Cells were assayed in a 96-well tissue culture plate (NUNC 136102) of RPMI medium containing 10% FBS for all cells at 1,000 cells per well. […] ATP levels were determined by adding Cell Titer Glo® (Promega) according to the manufacturer's protocol. Briefly, Cell Titer Glo® was added each plate, incubated for 30 minutes then luminescent signal was read on the SpectraMax L plate reader with a 0.5 sec integration time.
Inhibition of cell growth was estimated after treatment with compound or combination of compounds for three days and comparing the signal to cells treated with vehicle (DMSO). Cell growth was calculated relative to vehicle (DMSO) treated control wells. […]
The combination effects on the response scale were quantified by Excess Over Highest Single Agent (EOHSA) based on the concept of nonlinear blending as described in detail by Peterson and Novick (2007) and Peterson (2010) [(2;3) [Peterson and Novick, 2007; Peterson, 2010]. […]

16R6-4 = experiment: Cell growth inhibition assay (Cell Titer Glo) and combination data analysis; assay type: cell-based; settings: Homo sapiens, A375P-F11, 72 h, Melanoma, resistant clone of A375 PF11, BRAF_V600E, 3 days
Experimental: as §8

16R6-3 = experiment: as above; assay type: cell-based; settings: Homo sapiens, A375P-F11, 72 h, Melanoma, resistant clone of A375 PF11, BRAF_V600E, 3 days
Experimental: as §8

LS-1034 = experiment: as above; assay type: cell-based; settings: Homo sapiens, 72 h, Colon, KRAS_A146T, 3 days
12R5-3 = experiment: as above; assay type: cell-based; settings: Homo sapiens, A375P-F11, 72 h, Melanoma, resistant clone of A375 PF11, BRAF_V600E, 3 days
Experimental: as §7

16R5-2 = experiment: as above; assay type: cell-based; settings: Homo sapiens, A375P-F11, 72 h, Melanoma, resistant clone of A375 PF11, BRAF_V600E, 3 days
Experimental: as §8

12R8-1 = experiment: as above; assay type: cell-based; settings: Homo sapiens, A375P-F11, 72 h, Melanoma, resistant clone of A375 PF11, BRAF_V600E, 3 days
Experimental: as §7

[5] = mean ± std, read-out: IC50 Single Agent Compound A
[6] = read-out: IC50 Single Agent Compound A
[7] = read-out: IC50 Single Agent Compound B

IC50 (SW480; [5]): 42 ± 3 nM
IC50 (NCI-H508; [5]): 10 ± 5 nM
IC50 (SW837; [5]): 93 ± 63 nM
IC50 (HCT-8; [5]): 50 ± 11 nM
IC50 (SW1417; [6]): 3 ± 2 nM
IC50 (SW1463; [5]): 5 ± 4 nM
IC50 [3]: 58 to 109 nM
IC50 (A375PF11; [6]): 1 nM
IC50 (HT-29; [6]): 1 ± 1 nM
IC50 (Colo-205; [6]): 1 nM
IC50 (DLD1; [5]): 557 ± 393 nM
SMILES: CC(=O)Nc1cccc(-n2c(=O)n(C3CC3)c(=O)c3c(Nc4ccc(I)cc4F)n(C)c(=O)c(C)c32)c1 [Compound A, N-{3-[3-cyclopropyl-5-(2-fluoro-4-iodo-phenylamino)6,8-dimethyl-2,4,7-trioxo-3,4,6,7-tetrahydro-2H-pyrido[4,3-d]pyrimidin-1-yl]phenyl}acetamide]
IC50 ([1]; range over the four colon cell lines with BRAF V600E mutation): 1 to 25 nM
IC50 ([2]; six out of the seven colon lines without BRAF V600E mutation, read-out: IC50s, single agent): 1 to 93 nM
IC50 (12R8-3; [5]): 59 ± 37 nM
IC50 (RKO; [6]): 25 ± 7 nM
IC50 (12R5-1; [6]): > 1000 nM
sensitivity to single agent [4]: resistant or insensitive
IC50 (16R6-4; [6]): > 1000 nM
IC50 (16R6-3; [5]): 109 ± 22 nM
IC50 (LS-1034; [5]): 11 ± 7 nM
IC50 (12R5-3; [5]): 92 ± 52 nM
IC50 (16R5-2; [6]): > 1000 nM
IC50 (12R8-1; [5]): 58 ± 30 nM

SMILES: CC(C)(C)c1nc(-c2cccc(NS(=O)(=O)c3c(F)cccc3F)c2F)c(-c2ccnc(N)n2)s1 [Compound B, N-{3-[5-(2-Amino-4-pyrimidinyl)-2-(1,1-dimethylethyl)-1,3-thiazol-4-yl]-2-fluorophenyl}-2,6-difluorobenzenesulfonamide]
IC50 (SW480; [7]): > 10000 nM
IC50 (NCI-H508; [7]): > 10000 nM
IC50 [1]: 18 to 5650 nM
IC50 ([2]; read-out: IC50, single agent): > 10000 nM
IC50 (SW837; [7]): > 10000 nM
IC50 (HCT-8; [7]): > 10000 nM
IC50 (SW1417; [7]): 203 ± 15 nM
IC50 (SW1463; [7]): > 10000 nM
IC50 (12R8-3; [7]): > 10000 nM
IC50 [3]: > 10000 nM
IC50 (RKO; [7]): 5650 ± 3900 nM
IC50 (A375PF11; [7]): 12 nM
IC50 (HT-29; [7]): 22 ± 22 nM
IC50 (Colo-205; [7]): 18 ± 13 nM
IC50 (DLD1; [7]): > 10000 nM
IC50 (12R5-1; [7]): > 10000 nM
sensitivity to single agent [4]: resistant or insensitive
IC50 (16R6-4; [7]): > 10000 nM
IC50 (16R6-3; [7]): > 10000 nM
IC50 (LS-1034; [7]): > 10000 nM
IC50 (12R5-3; [7]): > 10000 nM
IC50 (16R5-2; [7]): > 10000 nM
IC50 (12R8-1; [7]): > 10000 nM
